Measurements: US10464896B2, “Efflux-pump inhibitors and therapeutic uses thereof” (Basilea Pharmaceutica International AG, priority 2015, dated 2019)

Tests used:
[1] = system: P. aeruginosa PAO1; assay: Antibacterial activity in combination with minocycline (growth inhibition); type: cell-based; conditions: Pseudomonas aeruginosa, PAO1, compound at 50 μM; minocycline 8 μg/mL; OD625 23 h minus 1 h; read-out: residual growth of P. aeruginosa PAO1 (% of uninhibited control) with minocycline
In short: (§1)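 Test compound combined with fixed subinhibitory partner antibiotic: linezolid 128 μg/mL for either strain, minocycline 0.25 μg/mL (E. coli) or 8 μg/mL (P. aeruginosa), in caMHB shaken at 37 °C. Residual growth as % of inhibitor-free control, from OD625 at 23 h minus 1 h.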

[2] = system: E. coli ATCC25922; assay: as above; type: cell-based; conditions: Escherichia coli, minocycline 0.25 μg/mL, OD625 23 h minus 1 h, read-out: residual growth of E. coli ATCC25922 (% of uninhibited control) with minocycline; for activity at 25 µM: ATCC25922, compound at 25 μM; for activity at 50 µM: ATCC25922, compound at 50 μM
In short: as §1

Q: `C(=C\c1cc(CNCC2CCNC2)cc(OCCN2CCOCC2)c1)/c1cccnc1` (stereo not shown) [Example 440] was tested. Which activity at 50 µM [1] did it give?
A: ≤ 50%

Q: `C=CCOc1cc(/C=C/c2ccc(Cl)cc2Br)cc(C[N+](C)(C)CC(=O)NCC2CNC2)c1` [Example 444] was tested. Which activity at 25 µM [2] did it give?
A: ≤ 10%

Q: With `N#Cc1cncc(/C=C/c2cc(OCc3ccccc3)cc(CNCC3CCNC3)n2)c1` (stereo not shown) [Example 446] as the compound, how does the activity at 25 µM [2] read?
A: ≤ 10%

Q: For `C=CCOc1cc(/C=C/c2ccc(Cl)cc2Br)cc(CN(CC2CNC2)CC2CNC2)c1` [Example 448], which activity at 25 µM [2] is on record?
A: ≤ 10%

Q: Which activity at 25 µM [2] does the source give for `C=CCOc1cc(/C=C/c2ccc(Cl)cc2Br)cc(CNCCNC(=O)C2CNC2)c1` [Example 450] here?
A: ≤ 10%

Q: `C=CCOc1cc(/C=C/c2ccc(Cl)cc2Br)cc(C(=O)NCCNCC2CNC2)c1` [Example 451] was tested. Which activity at 25 µM [2] did it give?
A: ≤ 10%

Q: How did the activity at 25 µM [2] turn out when `C=CCOc1cc(/C=C/c2ccc(Cl)cc2Br)cc(CNC(=O)C[N+](C)(C)CC2CNC2)c1` [Example 452] was run?
A: ≤ 10%

Q: How did the activity at 25 µM [2] turn out when `C=CCOc1cc(/C=C/c2ccc(Cl)cc2Br)cc(CNCCNCC2CNC2)c1` [Example 453] was run?
A: ≤ 10%

Q: `C=CCOc1cc(/C=C/c2ccc(Cl)cc2Br)cc(CNCCN(CC2CNC2)CC2CNC2)c1` [Example 455] was tested. Which activity at 25 µM [2] did it give?
A: ≤ 10%

Q: How did the activity at 25 µM [2] turn out when `C=CCOc1cc(/C=C/c2ccc(Cl)cc2Br)cc(C(=O)N(CC2CNC2)CC2CNC2)c1` [Example 456] was run?
A: ≤ 10%

Q: Which activity at 25 µM [2] does the source give for `C=CCOc1cc(/C=C/c2cncc(C(=O)OC)c2)cc(CNCC2CCNC2)c1` (stereo not shown) [Example 457] here?
A: ≤ 10%

Q: `C=CCOc1cc(/C=C/c2cncc(C(N)=O)c2)cc(CNCC2CCNC2)c1` (stereo not shown) [Example 458] was tested. Which activity at 50 µM [1] did it give?
A: ≤ 50%

Q: How did the activity at 25 µM [2] turn out when `CC(C)COc1cc(/C=C/c2cccnc2)cc(C[N+](C)(C)CC2CCNC2)c1` (stereo not shown) [Example 459] was run?
A: ≤ 10%

Q: Which activity at 25 µM [2] does the source give for `CC(C)COc1cc(/C=C/c2cncc(C#N)c2)cc(C[N+](C)(C)CC2CCNC2)c1` (stereo not shown) [Example 460] here?
A: ≤ 10%

Q: Which activity at 25 µM [2] does the source give for `Clc1ccc(COc2ccc(OCCc3c[nH]cn3)c(CNCC3CCNC3)c2)c(Br)c1` (stereo not shown) [Example 463] here?
A: ≤ 10%

Q: `Clc1ccc(/C=C/c2ccc(OCCc3c[nH]cn3)c(CNCC3CCNC3)c2)c(Br)c1` (stereo not shown) [Example 464] was tested. Which activity at 25 µM [2] did it give?
A: ≤ 10%

Q: How did the activity at 25 µM [2] turn out when `Clc1ccc(COc2ccc(OCCc3c[nH]cn3)c(CNCC3CNC3)c2)c(Br)c1` [Example 465] was run?
A: ≤ 10%

Q: `Clc1ccc(/C=C/c2ccc(OCCc3c[nH]cn3)c(CNCC3CNC3)c2)c(Br)c1` [Example 471] was tested. Which activity at 25 µM [2] did it give?
A: ≤ 10%

Q: `N#Cc1cncc(/C=C/c2cc(CNCC3CCNC3)cc(OCc3ccccn3)c2)c1` (stereo not shown) [Example 474] was tested. Which activity at 50 µM [1] did it give?
A: ≤ 50%

Q: For `CC(C)COc1cc(CNCC2CCNC2)cc(CNC(=O)c2cccc(C(N)=O)c2)c1` (stereo not shown) [Example 477, N1-[[3-isobutoxy-5-[(pyrrolidin-3-ylmethylamino)methyl]phenyl]methyl]benzene-1,3-dicarboxamide], which activity at 50 µM [1] is on record?
A: ≤ 50%

Q: How did the activity at 50 µM [1] turn out when `N#Cc1cncc(/C=C/c2cc(O)cc(CNCC3CCNC3)c2)c1` (stereo not shown) [Example 480, 5-[(E)-2-[3-hydroxy-5-[(pyrrolidin-3-ylmethylamino)methyl]phenyl]vinyl]pyridine-3-carbonitrile] was run?
A: ≤ 50%

Q: Which activity at 50 µM [2] does the source give for `CC(C)COc1cc(CNCC2CCNC2)cc(NC(=O)c2cccnc2)c1` (stereo not shown) [Example 485, N-[3-isobutoxy-5-[(pyrrolidin-3-ylmethylamino)methyl]phenyl]pyridine-3-carboxamide] here?
A: ≤ 50%

Q: Which activity at 50 µM [1] does the source give for `N#Cc1cncc(/C=C/c2cc(CNCC3CCNC3)cc(OCCc3ccncc3)c2)c1` (stereo not shown) [Example 496] here?
A: ≤ 50%

Q: For `C=CCOc1cc(/C=C/c2cncc(O)c2)cc(CNCC2CCNC2)c1` (stereo not shown) [Example 499], which activity at 50 µM [2] is on record?
A: ≤ 50%

Q: `Clc1ccc(/C=C/c2cc(OCCCNCC3CNC3)cc(OCCc3ccncc3)c2)c(Br)c1` [Example 509] was tested. Which activity at 25 µM [2] did it give?
A: ≤ 10%

Q: With `O=C(NCc1cc(CNCC2CNC2)cc(OCCc2ccncc2)c1)c1cccnc1` [Example 510] as the compound, how does the activity at 50 µM [1] read?
A: ≤ 50%

Q: How did the activity at 25 µM [2] turn out when `Cc1cc(COc2ccc(OCCCNCC3CNC3)c(/C=C/c3ccc(Cl)cc3Br)c2)no1` [Example 512] was run?
A: ≤ 10%

Q: Which activity at 25 µM [2] does the source give for `CC(C)COc1ccc(/C=C/c2ccc(Cl)cc2Br)cc1OCCCNCC1CNC1` [Example 513] here?
A: ≤ 10%

Q: For `O=C(NCCNC(=O)C1CNC1)c1cc(/C=C/c2ccc(Cl)cc2Br)cc(OCCc2ccncc2)c1` [Example 515], which activity at 25 µM [2] is on record?
A: ≤ 10%

Q: Which activity at 25 µM [2] does the source give for `Clc1ccc(/C=C/c2cc(OCCCCNCC3CNC3)cc(OCCc3ccncc3)c2)c(Br)c1` [Example 517] here?
A: ≤ 10%

Q: How did the activity at 25 µM [2] turn out when `O=C(NCCNCC1CNC1)c1cc(/C=C/c2ccc(Cl)cc2Br)cc(OCCc2ccncc2)c1` [Example 518] was run?
A: ≤ 10%

Q: For `Clc1ccc(/C=C/c2cc(OCc3ccncc3)ccc2OCCCNCC2CNC2)c(Br)c1` [Example 519], which activity at 25 µM [2] is on record?
A: ≤ 10%

Q: How did the activity at 25 µM [2] turn out when `Cc1cc(COc2ccc(/C=C/c3ccc(Cl)cc3Br)cc2CNC(=O)C2CCNC2)no1` (stereo not shown) [Example 523] was run?
A: ≤ 10%

Q: `Clc1ccc(/C=C/c2cc(OCCc3ccncc3)ccc2OCCCNCC2CNC2)c(Br)c1` [Example 525] was tested. Which activity at 25 µM [2] did it give?
A: ≤ 10%
